Experimental data published in publication PMC10569260 (Nature methods, 2023).

Legend:
locomotion = assay: Open field locomotion with infusion / in vivo uncaging in the VTA; design: species or system mouse; settings: naloxone 3 mg/kg intraperitoneal before CNV-Y-DAMGO infusion and light
[1] = system: inhibitory synaptic transmission onto CA1 pyramidal neurons (native opioid receptors); assay type: cell-based, mouse; settings: CTAP 1 μM, with CNV-Y-DAMGO uncaging

`C=CCN1CC[C@]23c4c5ccc(O)c4O[C@H]2C(=O)CC[C@@]3(O)[C@H]1C5` [naloxone] was tested. Which “effect on locomotor response to DAMGO photorelease” value (locomotion) did it give?
The value was “strongly attenuated”.

CTAP was tested. Which “effect on optically-evoked suppression of synaptic transmission” value [1] did it give?
The value was “completely blocked”.
